These results are taken from US20040043420A1, “Method of identifying conformation-sensitive binding peptides and uses thereof” (priority 2003, published 2004).

The target in data set [1] is T1, androgen receptor (Homo sapiens, UniProt P10275).
T1 sequence (P10275 1-920): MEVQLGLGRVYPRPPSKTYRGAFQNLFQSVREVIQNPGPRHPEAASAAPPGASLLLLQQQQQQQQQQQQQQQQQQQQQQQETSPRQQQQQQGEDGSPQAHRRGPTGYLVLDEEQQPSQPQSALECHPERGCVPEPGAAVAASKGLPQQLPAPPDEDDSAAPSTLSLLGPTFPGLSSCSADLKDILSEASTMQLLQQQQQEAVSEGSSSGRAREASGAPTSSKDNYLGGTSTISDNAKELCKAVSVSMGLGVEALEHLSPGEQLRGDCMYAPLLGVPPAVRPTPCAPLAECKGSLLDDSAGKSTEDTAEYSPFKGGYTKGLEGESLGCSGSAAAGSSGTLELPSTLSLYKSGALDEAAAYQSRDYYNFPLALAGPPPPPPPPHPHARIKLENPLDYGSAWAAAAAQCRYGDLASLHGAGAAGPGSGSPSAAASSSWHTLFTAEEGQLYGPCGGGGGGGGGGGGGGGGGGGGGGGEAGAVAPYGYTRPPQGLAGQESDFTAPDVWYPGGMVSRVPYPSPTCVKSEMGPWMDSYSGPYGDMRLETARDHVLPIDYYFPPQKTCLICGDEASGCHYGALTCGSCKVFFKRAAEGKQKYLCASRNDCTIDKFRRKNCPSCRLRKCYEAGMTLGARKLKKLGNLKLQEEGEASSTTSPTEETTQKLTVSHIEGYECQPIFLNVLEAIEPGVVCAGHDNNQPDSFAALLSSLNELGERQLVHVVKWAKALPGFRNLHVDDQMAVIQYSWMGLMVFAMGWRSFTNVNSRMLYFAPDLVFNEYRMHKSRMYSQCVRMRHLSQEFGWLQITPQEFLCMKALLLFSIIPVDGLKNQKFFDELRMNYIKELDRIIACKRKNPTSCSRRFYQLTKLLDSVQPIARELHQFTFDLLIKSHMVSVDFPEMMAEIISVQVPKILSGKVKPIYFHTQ
Nature of the data set: Yeast two-hybrid screening of unbiased X15 peptide library, ligand-induced β-galactosidase activity (FIG. 3, Table 503). In kind it is cell-based. Also noted: expressed in transfected cells; host or cells: Saccharomyces cerevisiae PJ69-4α. Conditions: for Yeast Specificity Graph (FIG. 3): CPA: ligand CPA; for Yeast Specificity Graph (FIG. 3): DHT: ligand DHT; for Yeast Specificity Graph (FIG. 3): RU: ligand RU; for Yeast Specificity Graph (FIG. 3): No Lig: no ligand. From the text: Our library contained predominantly 15 random amino acid residues/peptide in order to identify motifs that might interact with nuclear receptor domains. If ligand is provided to the cells, one can screen for peptides that interact with the ligand-bound receptor. […] Included at the ends of the oligonucleotide were the synthetic restriction endonuclease cleavage sites, EcoRI or Mfe I (5′ end) and Sal I (3′ end). Oligonucleotides were annealed, then cleaved with excess restriction endonuclease and purified on agarose gels. The purified set of oligonucleotides was subcloned as an in-frame carboxy-terminal fusion to a Gal4 DNA binding domain (plasmid vector pMA424 derivative). […] The transformation mix was divided and grown on plates of selective media containing ligand and 25 mM 3-aminotriazole at 30° C. until colonies appeared in 3-7 days. […] Dihydrotestosterone (DHT) and medroxyprogesterone (MPA) were added to the media at 100 nM to identify peptides that interact with the receptor in the presence of ligand. After colonies appeared they were picked and dispersed into individual wells of a 96-well plate containing rich media (YPD).
To determine ligand dependence, two microliter aliquots were removed from the cell suspension, and arrayed and spotted onto each of two rectangular agar plates, one with 100 nM ligand and one without ligand. Growth was monitored daily.
A secondary test of ligand dependent activation was performed using the integrated GAL4-driven lacZ gene. Cell suspensions of the initial positive clones were diluted 20-fold into 20 microliters of rich media in a microplate and grown overnight at 30° C. in the presence and absence of ligand. Microplates were centrifuged for 5 minutes at 3000 rpm in a swinging table top centrifuge to pellet the yeast cells, and the overlying media was aspirated. […] An OD650 density determination was made to normalize the β-galactosidase activity. β-galactosidase activity was monitored following the addition of buffer containing chlorophenol red-1-galactopyranoside (CPRG) (Boehringer Mannheim) substrate at a final concentration of 0.5 mM. […] The maximum slope value of this measurement was normalized to cell density from the initial OD650 value, and the relative ligand dependence of β-galactosidase was determined by comparing the values plus and minus ligand.
In FIG. 3, all of these ligands were tested. The plasmids from true positives were extracted using standard yeast extraction protocols and re-transformed to verify the positive phenotype.

Data set [2] deals with T1, androgen receptor. In kind it is cell-based. Also noted: expressed in transfected cells. Conditions: for Mammalian Cell Specificity Graph (FIG. 4): DHT: ligand DHT; for Mammalian Cell Specificity Graph (FIG. 4): MPA: ligand MPA; for Mammalian Cell Specificity Graph (FIG. 4): RU486: ligand RU486. From the text: We used a mammalian two-hybrid system to determine specificities of the AR-binding peptides previously identified, through screening of the aforementioned yeast library, as ligand-dependent in their binding activity. Ligand was provided to the cells so the interaction could be observed. The human hepatoma cell line, Huh-7, was used as the recipient of two-hybrid vectors, pM and pVP16 (Clontech) (FIGS. 6A and 6B), containing fusions with peptide and AR, respectively. According to Clontech literature, the Clontech vectors pM and VP16 generate fusions of protein X with the GAL4 DNA-BD and fusions of protein Y with the VP16AD, in the Mammalian MM Two-Hybrid Assay Kit (#K1602-1). (Note: pM and VP16 contain unique cloning sites in the same order and reading frame as the DNA-BD and AD, respectively, vectors in the yeast […] Two-Hybrid Systems.) A third vector, pG5CAT, provides a CAT reporter gene under the control of a GAL4-responsive element and minimal promoter of the adenovirus E1b. The three vectors are cotransfected into any suitable mammalian host cell line by standard methods. The interaction between proteins X and Y is then assayed by measuring CAT gene expression by any standard method. In the absence-of activation (i.e., no protein-protein interaction), the minimal E1b promoter will not express significant levels of CAT.
Briefly, cells are seeded in a 24-well culture plate to a density of 50-80% confluence in phenol red-free media containing charcoal-dextran stripped fetal bovine serum (10%). Following incubation overnight, cells are transfected with plasmids pM-peptide, pVP16-AR, pCMV-b-gal, and p5XGAL-Luc3 DNAs using lipofectamine 2000 (LifeTech) according to the manufacturer's protocol. Transfections are allowed to proceed for 6 hours and the transfection media is aspirated and replaced with recovery media for 18 hours. Following the recovery period, cells are treated with compound for 24 hours prior to cell harvesting. Cells are washed with PBS and then lysed using the lysis buffer from the Galacto-Light Plus β-galactosidase assay kit (Tropix). Assays for luciferase and β-galactosidase were performed as described by the manufacturer. Peptide/AR interactions are described in terms of the luciferase activity normalized for transfection efficiency using β-galactosidase activity (see FIG. 4A). Two types of useful information arose from these methods: 1) we generated a panel of useful peptide probes to analyze the conformational state of AR, and 2) we “fingerprinted” AR modulators with respect to AR conformation (FIG. 4B). […] FIG. 4B is the converse of 4A. It compares the ability of six ligands (DHT, MPA, CYP, RU486, FLUT and DHEAs to interact with AR in the presence of each of four peptides (D30, 5G11, B8H3 and […]). Thus, it is a “fingerprint” of each of the six ligands using a four peptide panel. (Note that “1269” and D30″ refer to the same peptide.)

On to EFVNWDAVVPWSELVALLDLOPS [B8A10], for which, in data set [1], the Fold induction is 1, the “Yeast Specificity Graph (FIG. 3): CPA” value was 0.3955, the “Yeast Specificity Graph (FIG. 3): DHT” value is given as 0.6163 and the “Yeast Specificity Graph (FIG. 3): RU” value is on record as 0.4. Besides, the “Yeast Specificity Graph (FIG. 3): No Lig” value in data set [1] turned out to be 0.8753.

As for EFRSSVFEQMYLCTGGSLDLOPS* [B5G11], in data set [1], the “Yeast Specificity Graph (FIG. 3): CPA” value stood at 0.9726, the “Yeast Specificity Graph (FIG. 3): DHT” value is listed as 3.964, the “Yeast Specificity Graph (FIG. 3): RU” value was 0.9 and the “Yeast Specificity Graph (FIG. 3): No Lig” value was found to be 0.6382. For the same substance, in data set [2], the “Mammalian Cell Specificity Graph (FIG. 4): CYP.” value is 4.462 Relative Light Units, the “Mammalian Cell Specificity Graph (FIG. 4): DHT” value was 15.84 Relative Light Units, the “Mammalian Cell Specificity Graph (FIG. 4): MPA” value is 8.029 Relative Light Units and the “Mammalian Cell Specificity Graph (FIG. 4): RU486” value stood at 0.1051 Relative Light Units. Also, the “Mammalian Cell Specificity Graph (FIG. 4): no compound” value in data set [2] came out at 0.05028 Relative Light Units.

For the substance EFRQSFVSEILGGGWLPLDLOPS [M2H3], in data set [1], the Fold induction was 10, the “Yeast Specificity Graph (FIG. 3): CPA” value is 8.592, the “Yeast Specificity Graph (FIG. 3): DHT” value is 24.12 and the “Yeast Specificity Graph (FIG. 3): RU” value was 6.8. Moreover, the “Yeast Specificity Graph (FIG. 3): No Lig” value in data set [1] is recorded as 2.53. In addition, the “Yeast Specificity Graph (FIG. 3): MPA” value in data set [1] (ligand MPA) is 19.25. Further, the “Yeast Specificity Graph (FIG. 3): Test” value in data set [1] (ligand Test) came out at 26.57.

For “EFPELLAMTRWGRHAALLEPQRLPPPRTTTQPQTEFERMFFFTRPMRTTGLLDLOPS* [B2A7]”, in data set [1], the “Yeast Specificity Graph (FIG. 3): CPA” value was found to be 0.2919, the “Yeast Specificity Graph (FIG. 3): DHT” value is 1.719, the “Yeast Specificity Graph (FIG. 3): RU” value stood at 0.5 and the “Yeast Specificity Graph (FIG. 3): No Lig” value is 0.3711.

Turning to HPTHSSRLWELLMEATPTM [D30], in data set [2], the “Mammalian Cell Specificity Graph (FIG. 4): CYP.” value turned out to be 11.18 Relative Light Units, the “Mammalian Cell Specificity Graph (FIG. 4): DHT” value was determined as 12.59 Relative Light Units, the “Mammalian Cell Specificity Graph (FIG. 4): MPA” value is listed as 15.62 Relative Light Units and the “Mammalian Cell Specificity Graph (FIG. 4): RU486” value is reported as 0.8461 Relative Light Units. The “Mammalian Cell Specificity Graph (FIG. 4): no compound” value in data set [2] was determined as 0.03854 Relative Light Units.
